Broadly, the Ki is the equilibrium dissociation constant of an inhibitor or competing ligand from its target. Low values mean tighter binding, high ones weaker binding.

For experiment [1], the system named is adenylate cyclase, human osteosarcoma cell line, B10. The experiment is described as follows: Human bone cell (B 10) adenylate cyclase assay. Conditions: inhibition of cAMP stimulation by lnM [Nle^8,18, Tyr^34 ] bPTH(1-34) NH2; B10 cells. It counts as cell-based. The procedure: HCF analogues were analyzed in a human osteosarcoma cell line, B10, for the ability to inhibit cAMP stimulation by lnM [Nle^8,18, Tyr^34 ] bPTH(1-34) NH2 by the method described by R. J. Majeska et al, Endocrinol. 107, 1494 (1980).
Adenylate cyclase assay: Confluent cultures were rinsed in CMFH and scraped into 0.5-1.0 ml buffer (10 mM Tris-HCl, pH 7.8; 1 mM dithiothreitol, 0.2 mM MgCl2; and 0.5 mM EGTA) and homogenized with 10 strokes of a Dounce homogenizer (pestle A). Adenylate cyclase activity was measured by the method of Salomon et al., (18) on samples of either homogenate or membrane pellets obtained by centrifugation of diluted homogenates at 47,000×g for 30 min. The enzyme assay mix contained 0.1-0.3 mM [α-^32 P]ATP, MgCl2, and guanine nucelotides, as specified in the tables and FIGURES, and 1 mM cAMP, 5 mM phosphocreatine, and 100 U/ml creatine phosphokinase. Purified bovine PTH-(1-84), generously provided by Drs. H. Keutmann and M. Rosenblatt, Massachusetts General Hospital, Boston, MA, was dissolved and diluted in 1.5 ml/liter acetic acid containing 1 g/liter bovine serum albumin (Pentex fraction V, Miles Laboratories, Elkhart, IN). L-Isoproterenol bitarate (Sigma Chemical Co., St. Louis, MO) was prepared immediately before use and dissolved and diluted in assay buffer. Control tubes were assayed in the presence of diluent alone.

The target of experiment [2] is T1, PTH receptors (human bone cells) (Homo sapiens, UniProt Q03431).
T1 construct: endogenous in cells
T1 sequence (Q03431 27-593): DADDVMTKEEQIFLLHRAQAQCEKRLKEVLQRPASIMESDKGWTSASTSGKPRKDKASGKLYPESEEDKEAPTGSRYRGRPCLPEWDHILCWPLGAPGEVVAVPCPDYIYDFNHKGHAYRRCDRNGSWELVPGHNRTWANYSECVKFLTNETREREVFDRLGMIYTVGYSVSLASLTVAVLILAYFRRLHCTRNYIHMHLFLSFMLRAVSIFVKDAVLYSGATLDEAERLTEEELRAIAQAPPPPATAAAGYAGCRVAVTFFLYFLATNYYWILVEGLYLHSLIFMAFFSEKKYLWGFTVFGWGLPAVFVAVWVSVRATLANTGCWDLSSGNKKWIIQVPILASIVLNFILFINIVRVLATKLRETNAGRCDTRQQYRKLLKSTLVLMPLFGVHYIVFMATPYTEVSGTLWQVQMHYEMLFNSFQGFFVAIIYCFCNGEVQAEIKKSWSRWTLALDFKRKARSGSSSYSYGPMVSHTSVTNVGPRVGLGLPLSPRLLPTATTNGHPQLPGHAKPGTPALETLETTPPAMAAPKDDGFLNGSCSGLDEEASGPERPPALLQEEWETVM
The experiment is described as follows: Human bone cell binding assay. Conditions: confluent monolayers, radioligand [Nle^8,18,(^125 I)-Tyr^34 ]bPTH(1-34)NH2, room temperature, 4 hours. The procedure: HCF analogues were analyzed in a new receptor binding assay as follows. Cells were plated in 24-well dishes in RPMl 1640 medium supplemented with 1% BSA, 20 mM HEPES, pH 7.5, and 0.1% azide. [Nle^8,18,(^125 I)-Tyr^34 ]bPTH(1-34)NH2 (50,000 cpm/well) was added to confluent monolayers in the absence or presence of varying concentrations of analogue under investigation in a final volume of 0.25 ml. Cultures were incubated at room temperature for 4 hours. Reactions were terminated by placing the cultures on ice and washing 4 times with ice cold PBS. Radioactivity associated with the cells was recovered by solubilizing the cells with 1 ml of 1N NaOH.

Experiment [3] deals with T2, PTH receptors (bovine renal cortical plasma membranes) (Bos taurus, UniProt Q1LZF7).
T2 construct: from tissue; host or cells: bovine renal cortex plasma membranes
T2 sequence (Q1LZF7 29-589): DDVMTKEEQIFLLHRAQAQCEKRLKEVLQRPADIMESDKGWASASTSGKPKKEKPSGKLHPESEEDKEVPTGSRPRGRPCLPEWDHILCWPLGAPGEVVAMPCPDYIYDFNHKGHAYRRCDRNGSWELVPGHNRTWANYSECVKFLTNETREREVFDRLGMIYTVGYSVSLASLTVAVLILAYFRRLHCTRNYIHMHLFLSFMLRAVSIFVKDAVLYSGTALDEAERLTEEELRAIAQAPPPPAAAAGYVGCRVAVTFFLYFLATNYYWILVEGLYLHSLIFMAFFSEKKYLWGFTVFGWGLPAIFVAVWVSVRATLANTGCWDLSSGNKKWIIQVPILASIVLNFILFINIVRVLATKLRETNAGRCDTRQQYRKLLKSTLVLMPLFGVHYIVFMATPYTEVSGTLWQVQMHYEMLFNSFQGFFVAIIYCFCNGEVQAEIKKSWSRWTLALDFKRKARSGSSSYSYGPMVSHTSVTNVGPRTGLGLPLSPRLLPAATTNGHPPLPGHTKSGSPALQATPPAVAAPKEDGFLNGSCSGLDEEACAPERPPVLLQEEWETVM
The experiment is described as follows: Bovine renal membrane binding assay. Conditions: radioligand [Nle^8, 8, (^125 I)-Tyr^34 ]bPTH (1-34)NH2, 30 min, 21° C. How it is done: HCF analogues were analysed in a new receptor assay reported in Goldman et al., Endocrin 123: 1468-1475 (1988). The binding assay used [Nle^8, 8, (^125 I)-Tyr^34 ]bPTH (1-34)NH2 which was purified by HPLC (Novapak C18, 32-35% CH3 CN in 0.1% TFA) and was stored as aliquots in 25 mM TrisHCl/1%BSA at -70° C. Bovine renal cortical plasma membranes were incubated with radioligand (25,000 cpm) in a Tris-containing buffer (250 μl) for 30 min at room temperature 21° C. Once equilibrium was reached, bound and free radioligand were separated by centrifugation. High specific binding (85%) to bovine renal cortical membranes was obtained consistently.

In the case of `CC[C@H](C)[C@H](NC(=O)[C@H](CC(C)C)NC(=O)[C@H](Cc1c[nH]cn1)NC(=O)[C@H](Cc1c[nH]cn1)NC(=O)[C@H](CC(C)C)NC(=O)[C@H](Cc1ccccc1)NC(=O)[C@H](Cc1ccccc1)NC(=O)[C@H](CCCNC(=N)N)NC(=O)[C@H](CCCNC(=N)N)NC(=O)[C@H](CCCNC(=N)N)NC(=O)[C@H](CC(C)C)NC(=O)[C@H](CC(=O)O)NC(=O)[C@H](CCC(N)=O)NC(=O)[C@@H](NC(=O)[C@H](CO)NC(=O)[C@H](CCCCNC(=O)CCNC(=O)CCCC[C@@H]1SC[C@@H]2NC(=O)N[C@@H]21)NC(=O)[C@@H](Cc1c[nH]c2ccccc12)NC(=O)[C@H](CC(C)C)NC(=O)[C@H](CC(=O)O)NC(=O)[C@H](Cc1c[nH]cn1)NC(=O)[C@H](CC(C)C)NC(=O)[C@@H](N)CC(C)C)[C@@H](C)CC)C(=O)N[C@@H](C)C(=O)N[C@@H](CCC(=O)O)C(=O)N[C@H](C(=O)N[C@@H](Cc1c[nH]cn1)C(=O)N[C@H](C(=O)N[C@@H](C)C(N)=O)[C@@H](C)O)[C@@H](C)CC` [[Leu^11,D-Trp^12,Lys^13 (ε-(N-biotinyl β-Ala))]hHCF(7-34)NH2], the values for the Ki in experiment [1] and in experiment [2] were 7.6 nM and 37.3 nM, respectively. In experiment [3], the Kb was 22.6 nM.

Source of the values: US5087561A, “Humoral hypercalcemic factor antagonists modified at position 13 by biotin” (Merck & Co., Inc., priority 1990, dated 1992).
